Data from paper PMC4503722, “Novel Phenotypic Outcomes Identified for a Public Collection of Approved Drugs from a Publicly Accessible Panel of Assays” (PLoS ONE, 2015).

Columns and labels:
[1] = test system: endothelial tube formation in co-cultures of ECFCs and ADSCs treated with VEGF; assay: cells; type: cell-based, human
[2] = test system: nuclear β-catenin in C2C12 cells; assay: cells; type: cell-based; settings: concentration response; for WntCondMedia_bCatenin C2C12 IC50/EC50: assay number 5
[3] = test system: alkaline phosphatase (ALP) activity in C2C12 cells; type: cell-based; settings: concentration response; for WntCondMedia_Alk Phos C2C12 IC50/EC50: assay number 6
HeLa cells = assay: cells; type: cell-based; settings: for Hela CellCycMod PI 2N IC50/EC50: assay number 14; for Hela CellCycMod PI S Phase IC50/EC50: assay number 15; for Hela CellCycMod PI 4N IC50/EC50: assay number 16; for Hela CellCycMod PI MI IC50/EC50: assay number 17; for Hela CellCycMod PI Cell Number IC50/EC50: assay number 18
hp70S6K1 (RPS6KB1) = target: T1, hp70S6K1 (RPS6KB1) (Homo sapiens, UniProt P23443); assay: Cerep LANCE kinase assay hp70S6K1 (S1 assay 31); type: biochemical; settings: for hp70S6K1 LANCE IC50/EC50: assay number 31
T1 construct: purchased Cerep (LANCE kinase assay platform, contract assay)
T1 sequence (P23443 whole entry): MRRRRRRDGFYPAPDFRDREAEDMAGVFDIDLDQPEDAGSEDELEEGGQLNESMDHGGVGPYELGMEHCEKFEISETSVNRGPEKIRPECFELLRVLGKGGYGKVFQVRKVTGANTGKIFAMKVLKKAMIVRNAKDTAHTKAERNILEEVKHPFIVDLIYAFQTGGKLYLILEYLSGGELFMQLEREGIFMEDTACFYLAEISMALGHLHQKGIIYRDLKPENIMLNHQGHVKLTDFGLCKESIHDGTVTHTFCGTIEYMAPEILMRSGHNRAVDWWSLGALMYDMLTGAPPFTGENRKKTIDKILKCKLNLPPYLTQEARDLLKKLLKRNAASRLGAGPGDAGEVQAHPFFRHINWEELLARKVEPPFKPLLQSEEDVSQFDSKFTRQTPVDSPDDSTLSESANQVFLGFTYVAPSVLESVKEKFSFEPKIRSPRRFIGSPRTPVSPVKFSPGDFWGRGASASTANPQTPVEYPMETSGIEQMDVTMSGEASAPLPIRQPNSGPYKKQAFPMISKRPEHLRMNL

hKDR = target: T2, hKDR (Homo sapiens, UniProt P35968); assay: Cerep LANCE kinase assay hKDR (S1 assay 32); type: biochemical; settings: for hKDR LANCE IC50/EC50: assay number 32
T2 construct: purchased Cerep (LANCE kinase assay platform, contract assay)
T2 sequence (P35968 20-1356): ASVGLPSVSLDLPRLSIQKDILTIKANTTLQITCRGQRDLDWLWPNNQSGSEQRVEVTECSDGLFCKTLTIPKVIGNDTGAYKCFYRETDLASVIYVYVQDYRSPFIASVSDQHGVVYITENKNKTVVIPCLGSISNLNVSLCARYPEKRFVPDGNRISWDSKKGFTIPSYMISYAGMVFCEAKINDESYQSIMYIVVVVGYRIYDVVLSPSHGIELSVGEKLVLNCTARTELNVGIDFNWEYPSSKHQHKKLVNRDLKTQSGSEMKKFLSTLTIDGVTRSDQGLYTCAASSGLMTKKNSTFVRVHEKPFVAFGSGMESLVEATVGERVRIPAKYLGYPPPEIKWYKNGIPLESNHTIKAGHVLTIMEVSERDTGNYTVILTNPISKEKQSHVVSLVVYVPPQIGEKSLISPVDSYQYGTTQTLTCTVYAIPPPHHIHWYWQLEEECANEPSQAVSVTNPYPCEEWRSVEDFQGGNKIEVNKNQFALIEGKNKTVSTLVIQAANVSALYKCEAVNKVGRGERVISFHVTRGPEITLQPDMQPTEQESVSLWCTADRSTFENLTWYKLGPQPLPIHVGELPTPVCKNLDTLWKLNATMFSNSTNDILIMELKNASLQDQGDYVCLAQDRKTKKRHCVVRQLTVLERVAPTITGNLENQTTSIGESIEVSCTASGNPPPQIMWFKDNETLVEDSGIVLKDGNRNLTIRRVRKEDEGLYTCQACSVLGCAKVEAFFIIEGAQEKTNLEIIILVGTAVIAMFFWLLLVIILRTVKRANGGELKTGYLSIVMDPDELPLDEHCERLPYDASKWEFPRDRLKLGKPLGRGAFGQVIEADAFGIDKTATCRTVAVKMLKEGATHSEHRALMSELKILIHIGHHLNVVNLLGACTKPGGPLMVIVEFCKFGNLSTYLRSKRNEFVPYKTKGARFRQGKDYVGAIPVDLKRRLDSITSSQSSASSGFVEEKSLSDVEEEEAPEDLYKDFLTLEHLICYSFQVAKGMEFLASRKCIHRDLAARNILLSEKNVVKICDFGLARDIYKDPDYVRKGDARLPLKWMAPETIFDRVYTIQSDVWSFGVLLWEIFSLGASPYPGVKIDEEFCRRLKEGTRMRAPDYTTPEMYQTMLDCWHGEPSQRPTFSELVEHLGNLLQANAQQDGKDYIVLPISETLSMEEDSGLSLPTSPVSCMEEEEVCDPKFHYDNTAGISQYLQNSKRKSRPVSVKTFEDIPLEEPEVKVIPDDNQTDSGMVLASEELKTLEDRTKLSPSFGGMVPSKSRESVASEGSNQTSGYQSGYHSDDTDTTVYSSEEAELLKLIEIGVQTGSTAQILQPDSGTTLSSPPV

hJAK2 = target: T3, hJAK2 (Homo sapiens, UniProt O60674); assay: Cerep LANCE kinase assay hJAK2 (S1 assay 33); type: biochemical; settings: for hJAK2 LANCE IC50/EC50: assay number 33
T3 construct: purchased Cerep (LANCE kinase assay platform, contract assay)
T3 sequence (O60674 whole entry): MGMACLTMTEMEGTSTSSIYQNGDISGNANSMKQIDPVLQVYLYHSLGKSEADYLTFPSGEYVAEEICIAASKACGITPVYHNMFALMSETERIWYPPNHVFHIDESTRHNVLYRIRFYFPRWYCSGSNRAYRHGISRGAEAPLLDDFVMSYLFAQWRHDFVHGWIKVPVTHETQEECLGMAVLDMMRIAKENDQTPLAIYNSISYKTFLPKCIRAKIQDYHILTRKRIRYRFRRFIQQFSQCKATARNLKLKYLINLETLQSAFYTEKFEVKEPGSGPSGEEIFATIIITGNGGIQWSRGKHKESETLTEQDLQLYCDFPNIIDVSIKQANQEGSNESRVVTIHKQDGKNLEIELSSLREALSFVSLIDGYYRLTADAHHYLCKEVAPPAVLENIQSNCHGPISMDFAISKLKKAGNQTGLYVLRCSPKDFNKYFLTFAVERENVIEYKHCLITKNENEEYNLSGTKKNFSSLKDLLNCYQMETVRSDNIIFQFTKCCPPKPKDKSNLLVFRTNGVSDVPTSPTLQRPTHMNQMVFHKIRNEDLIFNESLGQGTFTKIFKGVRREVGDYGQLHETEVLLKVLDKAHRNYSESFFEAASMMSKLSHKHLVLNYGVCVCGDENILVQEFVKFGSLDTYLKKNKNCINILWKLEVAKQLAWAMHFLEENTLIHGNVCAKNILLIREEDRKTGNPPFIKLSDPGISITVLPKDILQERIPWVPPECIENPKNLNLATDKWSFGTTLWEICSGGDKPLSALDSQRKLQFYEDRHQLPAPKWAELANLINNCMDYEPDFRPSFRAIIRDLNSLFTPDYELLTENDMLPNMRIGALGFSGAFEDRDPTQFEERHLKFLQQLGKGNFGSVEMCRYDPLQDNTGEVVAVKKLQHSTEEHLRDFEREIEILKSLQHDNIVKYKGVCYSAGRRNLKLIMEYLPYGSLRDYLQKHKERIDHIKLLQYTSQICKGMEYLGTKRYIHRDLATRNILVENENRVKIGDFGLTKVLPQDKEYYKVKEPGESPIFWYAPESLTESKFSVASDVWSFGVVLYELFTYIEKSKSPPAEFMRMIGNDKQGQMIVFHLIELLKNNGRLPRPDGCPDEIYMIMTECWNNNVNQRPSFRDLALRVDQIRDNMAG

hGSK3b = target: T4, hGSK3b (Homo sapiens, UniProt P49841); assay: Cerep LANCE kinase assay hGSK3b (S1 assay 34); type: biochemical; settings: for hGSK3b LANCE IC50/EC50: assay number 34
T4 construct: purchased Cerep (LANCE kinase assay platform, contract assay)
T4 sequence (P49841 whole entry): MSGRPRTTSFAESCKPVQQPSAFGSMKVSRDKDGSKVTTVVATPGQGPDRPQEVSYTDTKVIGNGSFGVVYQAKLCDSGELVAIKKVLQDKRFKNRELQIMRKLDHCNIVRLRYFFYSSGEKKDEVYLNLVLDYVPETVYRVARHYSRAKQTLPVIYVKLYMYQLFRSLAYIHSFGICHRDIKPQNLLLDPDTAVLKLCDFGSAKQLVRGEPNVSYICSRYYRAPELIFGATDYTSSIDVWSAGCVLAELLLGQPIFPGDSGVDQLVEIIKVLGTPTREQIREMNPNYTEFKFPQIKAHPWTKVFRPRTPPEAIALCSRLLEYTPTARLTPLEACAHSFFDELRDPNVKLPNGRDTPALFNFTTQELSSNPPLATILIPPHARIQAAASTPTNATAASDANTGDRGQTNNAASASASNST

hFLT3 = target: T5, hFLT3 (Homo sapiens, UniProt P36888); assay: Cerep LANCE kinase assay hFLT3 (S1 assay 35); type: biochemical; settings: for hFLT3 LANCE IC50/EC50: assay number 35
T5 construct: purchased Cerep (LANCE kinase assay platform, contract assay)
T5 sequence (P36888 27-993): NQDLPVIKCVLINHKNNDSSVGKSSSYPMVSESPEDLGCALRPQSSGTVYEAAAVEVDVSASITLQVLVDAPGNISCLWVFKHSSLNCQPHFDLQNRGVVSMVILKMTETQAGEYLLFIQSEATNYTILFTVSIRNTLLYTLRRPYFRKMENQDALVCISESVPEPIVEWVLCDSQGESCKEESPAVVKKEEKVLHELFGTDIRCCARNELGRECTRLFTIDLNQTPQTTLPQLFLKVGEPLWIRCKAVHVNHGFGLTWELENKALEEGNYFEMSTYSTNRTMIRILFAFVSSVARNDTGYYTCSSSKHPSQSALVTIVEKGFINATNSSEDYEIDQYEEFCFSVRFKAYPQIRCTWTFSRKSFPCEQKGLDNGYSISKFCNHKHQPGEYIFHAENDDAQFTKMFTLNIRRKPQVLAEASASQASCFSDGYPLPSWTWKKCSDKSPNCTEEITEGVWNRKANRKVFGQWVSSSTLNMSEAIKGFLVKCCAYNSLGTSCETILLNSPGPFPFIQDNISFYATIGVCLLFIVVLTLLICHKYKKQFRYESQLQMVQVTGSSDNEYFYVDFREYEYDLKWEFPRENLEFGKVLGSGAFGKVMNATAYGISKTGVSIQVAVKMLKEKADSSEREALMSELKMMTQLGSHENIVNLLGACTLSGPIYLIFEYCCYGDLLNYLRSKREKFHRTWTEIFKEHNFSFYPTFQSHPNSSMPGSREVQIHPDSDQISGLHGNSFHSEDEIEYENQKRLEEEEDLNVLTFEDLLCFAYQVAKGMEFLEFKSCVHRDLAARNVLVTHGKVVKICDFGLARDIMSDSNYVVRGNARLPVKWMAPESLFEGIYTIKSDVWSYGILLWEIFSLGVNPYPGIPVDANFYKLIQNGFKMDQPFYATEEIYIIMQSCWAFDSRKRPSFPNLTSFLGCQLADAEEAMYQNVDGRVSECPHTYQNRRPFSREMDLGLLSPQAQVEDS

[4] = test system: ECFC/ADSC co-culture cell nuclei number

Structure (SMILES) | VEGF_ADSC\ECFC Angio CD31 TubeArea IC50/EC50 [1] [µM] | WntCondMedia_bCatenin C2C12 IC50/EC50 [2] [µM] | WntCondMedia_Alk Phos C2C12 IC50/EC50 [3] [µM] | Hela CellCycMod PI 2N IC50/EC50 (HeLa cells) [µM] | Hela CellCycMod PI 4N IC50/EC50 (HeLa cells) [µM] | Hela CellCycMod PI MI IC50/EC50 (HeLa cells) [µM] | Hela CellCycMod PI Cell Number IC50/EC50 (HeLa cells) [µM] | hp70S6K1 LANCE IC50/EC50 (hp70S6K1 (RPS6KB1)) [µM] | hKDR LANCE IC50/EC50 (hKDR) [µM] | hJAK2 LANCE IC50/EC50 (hJAK2) [µM] | hGSK3b LANCE IC50/EC50 (hGSK3b) [µM] | hFLT3 LANCE IC50/EC50 (hFLT3) [µM] | VEGF_ADSC\ECFC Angio Hoechst NucArea IC50/EC50 [4] [µM] | IC50/EC50, WntCondMedia_bCatenin C2C12 (assay number 5) [2] [µM] | IC50/EC50, WntCondMedia_Alk Phos C2C12 (assay number 6) [3] [µM] | IC50/EC50, Hela CellCycMod PI 2N (assay number 14) (HeLa cells) [µM] | IC50/EC50, Hela CellCycMod PI 4N (assay number 16) (HeLa cells) [µM] | IC50/EC50, Hela CellCycMod PI MI (assay number 17) (HeLa cells) [µM] | IC50/EC50, Hela CellCycMod PI S Phase (assay number 15) (HeLa cells) [µM] | IC50/EC50, hp70S6K1 LANCE (assay number 31) (hp70S6K1 (RPS6KB1)) [µM] | other results
[O-][n+]1ccccc1SSc1cccc[n+]1[O-] [NCGC00164493-02] | 0.719 | 0.9914 | 0.1306 | > 10 | > 10 | 2.2317 | 0.8425 | > 20 | > 20 | > 20 | > 20 | > 20 | 1.7865 |  |  |  |  |  |  |  | Hela CellCycMod PI S Phase IC50/EC50 (HeLa cells): > 10 µM
COC(=O)Nc1nc2ccc(C(=O)c3cccs3)cc2[nH]1 [NCGC00015647-18] |  |  |  |  |  |  |  |  |  |  |  |  |  | 0.2351 | 0.0434 | 0.0174 | 0.01755 | 0.01339 | > 10 | > 20 | IC50/EC50, VEGF_ADSC\ECFC Angio CD31 TubeArea (assay number 2) [1]: 0.1018 µM; IC50/EC50, hKDR LANCE (assay number 32) (hKDR): 6.61 µM; IC50/EC50, hJAK2 LANCE (assay number 33) (hJAK2): > 20 µM; IC50/EC50, hGSK3b LANCE (assay number 34) (hGSK3b): 19.89 µM; IC50/EC50, hFLT3 LANCE (assay number 35) (hFLT3): > 20 µM; IC50/EC50, VEGF_ADSC\ECFC Angio Hoechst NucArea (assay number 3) [4]: > 10 µM
C[n+]1c2cc(N)ccc2cc2ccc(N)cc21 [NCGC00178831-03] |  |  |  |  |  |  |  |  |  |  |  |  |  | > 20 | 1.5999 | 3.3946 | > 10 | 2.194 | 1.9618 | 6.57 | IC50/EC50, Hela CellCycMod PI Cell Number (assay number 18) (HeLa cells): 0.4722 µM; IC50/EC50, hKDR LANCE (assay number 32) (hKDR): > 20 µM; IC50/EC50, hJAK2 LANCE (assay number 33) (hJAK2): > 20 µM; IC50/EC50, hGSK3b LANCE (assay number 34) (hGSK3b): > 20 µM; IC50/EC50, hFLT3 LANCE (assay number 35) (hFLT3): > 20 µM
CC(C)(C)C(=O)OCOP(=O)(COCCn1cnc2c(N)ncnc21)OCOC(=O)C(C)(C)C [NCGC00164624-02] | 0.3913 | 0.7043 | 0.3874 | > 10 | > 10 | > 10 | 0.134 | > 20 | > 20 | > 20 | > 20 | > 20 | > 10 |  |  |  |  |  |  |  | Hela CellCycMod PI S Phase IC50/EC50 (HeLa cells): 0.0608 µM
COC(=O)c1nc(Cl)c(Cl)nc1N [NCGC00253704-01] |  |  |  |  |  |  |  |  |  |  |  |  |  | 0.3085 | 0.1565 | 0.3341 | 0.5115 | 0.8681 | > 10 | > 20 | IC50/EC50, VEGF_ADSC\ECFC Angio CD31 TubeArea (assay number 2) [1]: 0.8652 µM; IC50/EC50, Hela CellCycMod PI Cell Number (assay number 18) (HeLa cells): 0.4075 µM; IC50/EC50, hKDR LANCE (assay number 32) (hKDR): > 20 µM; IC50/EC50, hJAK2 LANCE (assay number 33) (hJAK2): > 20 µM; IC50/EC50, hGSK3b LANCE (assay number 34) (hGSK3b): > 20 µM; IC50/EC50, hFLT3 LANCE (assay number 35) (hFLT3): 2.86 µM; IC50/EC50, VEGF_ADSC\ECFC Angio Hoechst NucArea (assay number 3) [4]: 6.796 µM
Cc1ccccc1C(=O)Nc1ccc(C(=O)N2CCCC(N(C)C)c3ccccc32)cc1 (stereo not shown) [NCGC00262931-01] | > 10 | 4.5593 | 9.9815 | > 10 | > 10 | 3.4063 | 2.9147 | > 20 | > 20 | > 20 | > 20 | > 20 | > 10 |  |  |  |  |  |  |  | 
CCC1=C[C@@H]2CN(C1)Cc1c([nH]c3ccccc13)[C@@](C(=O)OC)(c1cc3c(cc1OC)N(C)[C@H]1[C@@](O)(C(=O)OC)[C@H](OC(C)=O)[C@]4(CC)C=CCN5CC[C@]31[C@@H]54)C2.O=C(O)C(O)C(O)C(=O)O.O=C(O)C(O)C(O)C(=O)O [NCGC00263568-01] | 0.0055 | 0.0089 | 0.0101 |  |  |  |  | > 20 | > 20 | > 20 | > 20 | > 20 | > 10 |  |  |  |  |  |  |  | 
COC(=O)[C@H]1[C@H]2C[C@@H]3c4[nH]c5cc(OC)ccc5c4CCN3C[C@H]2C[C@@H](OC(=O)/C=C/c2ccc(O)c(OC)c2)[C@@H]1OC [NCGC00253604-01] |  | > 20 | 10.4461 | > 10 | > 10 | > 10 | > 10 | > 20 | > 20 | > 20 | > 20 | > 20 |  |  |  |  |  |  |  |  | Hela CellCycMod PI S Phase IC50/EC50 (HeLa cells): > 10 µM
CCCN(CCC)C(=O)C(CCC(=O)OCCCN1CCN(CCOC(=O)Cc2c(C)n(C(=O)c3ccc(Cl)cc3)c3ccc(OC)cc23)CC1)NC(=O)c1ccccc1 (stereo not shown) [NCGC00183024-01] |  | > 20 | 13.2162 | > 10 | > 10 | > 10 | 5.4844 | > 20 | > 20 | > 20 | > 20 | > 20 |  |  |  |  |  |  |  |  | 
CCc1nc(N)nc(N)c1-c1ccc(Cl)cc1 [NCGC00016256-17] |  |  |  |  |  |  |  |  |  |  |  |  |  | 0.86 | 0.0677 | > 10 | > 10 | > 10 | > 10 | > 20 | IC50/EC50, Hela CellCycMod PI Cell Number (assay number 18) (HeLa cells): > 10 µM; IC50/EC50, hKDR LANCE (assay number 32) (hKDR): > 20 µM; IC50/EC50, hJAK2 LANCE (assay number 33) (hJAK2): > 20 µM; IC50/EC50, hGSK3b LANCE (assay number 34) (hGSK3b): > 20 µM; IC50/EC50, hFLT3 LANCE (assay number 35) (hFLT3): > 20 µM
